Laboratory results published in patent publication US11958832B1, “2-alkoxy[4,3:6,3-terpyridine]-3-carbonitriles as antimicrobial compounds” (KING FAISAL UNIVERSITY, priority 2023, dated 2024).

What was measured:
Assay type in all cases: cell-based
[1] = test system: Pseudomonas aeruginosa; experiment: Agar plate disc-diffusion, antibacterial inhibition zone; conditions: nutrient agar, 37° C., 48 hours, DMSO zone subtracted; for inhibition zone, Pseudomonas aeruginosa, A: A = concentration of comp. = 10,000 μL; for inhibition zone, Pseudomonas aeruginosa, B: B = concentration of comp. = 30,000 μL; for inhibition zone, Pseudomonas aeruginosa, C: C = concentration of comp. = 50,000 μL
Experimental: (§1) The agar plate disc-diffusion method was applied. Sterilized filter papers (6 mm in diameter) were wetted with 10 μL of a solution of compounds 2-ethoxy[4,3:6,3-terpyridine]-3-carbonitrile 4 and/or 2-methoxy[4,3:6,3-terpyridine]-3-carbonitrile 5 to be tested, […], and the discs were allowed to air dry. The discs were then placed onto the surface of agar plates (nutrient agar for bacteria and Sabouraud's dextrose agar for fungi) seeded with the test organism. Each plate contained 15 mL of the agar medium, previously seeded with 0.2 mL of the broth culture of each organism pregrown for 18 h. The plates were incubated at 37° C. for 48 hours, and 72 hours for fungi. The inhibition zones were measured in mm. Discs impregnated with DMSO were used as a control, and its inhibition zone was subtracted from the tested compound actual inhibition zone.

[2] = test system: Bacillus cereus; experiment: as above; conditions: nutrient agar, 37° C., 48 hours, DMSO zone subtracted; for inhibition zone, Bacillus Cereus, A: A = concentration of comp. = 10,000 μL; for inhibition zone, Bacillus Cereus, B: B = concentration of comp. = 30,000 μL; for inhibition zone, Bacillus Cereus, C: C = concentration of comp. = 50,000 μL
Experimental: as §1

[3] = test system: Escherichia coli; experiment: as above; conditions: nutrient agar, 37° C., 48 hours, DMSO zone subtracted; for inhibition zone, Escherichia coli, A: A = concentration of comp. = 10,000 μL; for inhibition zone, Escherichia coli, B: B = concentration of comp. = 30,000 μL; for inhibition zone, Escherichia coli, C: C = concentration of comp. = 50,000 μL
Experimental: as §1

[4] = test system: Staphylococcus aureus; experiment: as above; conditions: nutrient agar, 37° C., 48 hours, DMSO zone subtracted; for inhibition zone, Staphylococcus aureus, A: A = concentration of comp. = 10,000 μL; for inhibition zone, Staphylococcus aureus, B: B = concentration of comp. = 30,000 μL; for inhibition zone, Staphylococcus aureus, C: C = concentration of comp. = 50,000 μL
Experimental: The agar plate disc-diffusion method was applied. […] The discs were then placed onto the surface of agar plates (nutrient agar for bacteria and Sabouraud's dextrose agar for fungi) seeded with the test organism. Each plate contained 15 mL of the agar medium, previously seeded with 0.2 mL of the broth culture of each organism pregrown for 18 h. The plates were incubated at 37° C. for 48 hours, and 72 hours for fungi. The inhibition zones were measured in mm. Discs impregnated with DMSO were used as a control, and its inhibition zone was subtracted from the tested compound actual inhibition zone.

[5] = test system: Aspergillus flavus; experiment: Agar plate disc-diffusion, antifungal inhibition zone; conditions: Sabouraud's dextrose agar, 37° C., 72 hours, DMSO zone subtracted; for inhibition zone, Aspergillus flavus, A: A = concentration of comp. = 10,000 μL; for inhibition zone, Aspergillus flavus, B: B = concentration of comp. = 30,000 μL; for inhibition zone, Aspergillus flavus, C: C = concentration of comp. = 50,000 μL
Experimental: as §1

[6] = test system: Chrysosporium keratinophilum; experiment: as above; conditions: Sabouraud's dextrose agar, 37° C., 72 hours, DMSO zone subtracted; for inhibition zone, Chrysosporium keratinophilum, A: A = concentration of comp. = 10,000 μL; for inhibition zone, Chrysosporium keratinophilum, B: B = concentration of comp. = 30,000 μL; for inhibition zone, Chrysosporium keratinophilum, C: C = concentration of comp. = 50,000 μL
Experimental: as §1

Structure (SMILES)	inhibition zone, Pseudomonas aeruginosa, A [1]	inhibition zone, Pseudomonas aeruginosa, B [1]	inhibition zone, Pseudomonas aeruginosa, C [1]	inhibition zone, Bacillus Cereus, A [2]	inhibition zone, Bacillus Cereus, B [2]	inhibition zone, Bacillus Cereus, C [2]	inhibition zone, Escherichia coli, A [3]	inhibition zone, Escherichia coli, B [3]	inhibition zone, Escherichia coli, C [3]	inhibition zone, Staphylococcus aureus, A [4]	inhibition zone, Staphylococcus aureus, B [4]	inhibition zone, Staphylococcus aureus, C [4]	inhibition zone, Aspergillus flavus, A [5]	inhibition zone, Aspergillus flavus, B [5]	inhibition zone, Aspergillus flavus, C [5]	inhibition zone, Chrysosporium keratinophilum, A [6]	inhibition zone, Chrysosporium keratinophilum, B [6]	inhibition zone, Chrysosporium keratinophilum, C [6]
CCOc1nc(-c2cccnc2)cc(-c2cccnc2)c1C#N [Compound 4, 2-ethoxy[4,3:6,3-terpyridine]-3-carbonitrile]	24 mm	29 mm	39 mm	24 mm	27 mm	35 mm	27 mm	37 mm	48 mm	18 mm	22 mm	34 mm	21 mm	25 mm	35 mm	24 mm	27 mm	40 mm
COc1nc(-c2cccnc2)cc(-c2cccnc2)c1C#N [Compound 5, 2-methoxy[4,3:6,3-terpyridine]-3-carbonitrile]	24 mm	32 mm	38 mm	26 mm	28 mm	38 mm	28 mm	38 mm	50 mm	19 mm	28 mm	34 mm	25 mm	27 mm	38 mm	27 mm	29 mm	48 mm
